Reference: patent publication US8563601B2, “Method of managing broncho-constrictive condition” (Indus Biotech Private Limited, priority 2010, dated 2013)

What was measured:
[1] = test system: ovalbumin-induced broncho-constriction in sensitized guinea pigs; test: In-vivo pulmonary antigen-induced sensitization study (intratracheal pressure); parameters: species or system Male Duncan Hartley derived guinea pigs; conditions: about 30 mg/kg
Description: Prophylactic activity of instant composition against antigen-induced broncho-constriction is tested in sensitized guinea pigs. […] One hour after pretreatment, the guinea pigs are sensitized with intraperitoneal injection of ovalbumin (0.5 μg). A cocktail of Indomethacin (about 10 mg/kg), Mepyramine (about 2 mg/kg) and Propanolol (about 100 mg/kg) is injected about 10 mins before sensitization in order to block other mediators of broncho-blockade. Sensitized animals are anesthetized and artificially ventilated.

[2] = Heart rate and blood pressure in the pulmonary antigen-induced sensitization study; assay type: in vivo, Male Duncan Hartley derived guinea pigs; conditions: guinea pigs
Description: Prophylactic activity of instant composition against antigen-induced broncho-constriction is tested in sensitized guinea pigs. Male Duncan Hartley derived guinea pigs (400±50 g) are pretreated with instant composition at dose of about 100 mg/kg of body weight of the subject, administered orally. One hour after pretreatment, the guinea pigs are sensitized with intraperitoneal injection of ovalbumin (0.5 μg). A cocktail of Indomethacin (about 10 mg/kg), Mepyramine (about 2 mg/kg) and Propanolol (about 100 mg/kg) is injected about 10 mins before sensitization in order to block other mediators of broncho-blockade. Sensitized animals are anesthetized and artificially ventilated. […]

SMILES: O=C1CCN(c2ccccc2)N1 [Phenidone]
- ΔITP Before Ovalbumin ([1]; n = 5): 0 cm H2O
- ΔITP After Ovalbumin ([1]; n = 5, vehicle control 29.3 ± 2.2): 2.3 ± 0.3 cm H2O
- effect on blood pressure ([2]; 5 minutes after administration): reduced blood pressure
- Blood Pressure ([2]; measured 5 mins after administration, n = 5, vehicle control 49.4 ± 4.0): 34.4 ± 1.9 mm Hg
- Heart Rate ([2]; measured 5 mins after administration, n = 5, vehicle control 171.2 ± 3.4): 162.4 ± 4.7 beats/minute
